By GI50 is commonly meant the concentration that inhibits growth by half. As a reminder, the IC50 is the concentration that gives 50% inhibition. By inhibition is commonly meant the share of the control response that was lost under treatment.

This is an account of results in patent US8765748B2, “Indazolyl, benzimidazolyl, benzotriazolyl substituted indolinone derivatives as kinase inhibitors useful in the treatment of cancer” (University Health Network, priority 2007, dated 2014).

Test [1] relates to MCF-7 luminal breast cancer cell line. Briefly: Cell growth inhibition, Sulforhodamine B assay (SRB). As to conditions: Homo sapiens, MCF7, 120 h; 5 days culture, SRB; read-out: Cell Line GI50 Range, MCF-7. The format is cell-based. As to the method: (§1) Breast cancer cells (MCF-7, MDA-MB-468, HCC1954), colon cancer cells (SW620) and lung cancer cells (A549), together with human mammary epithelial primary cells (HMEC), were seeded (1000 to 4000 per 80 μl per well depending on the cell growth rate) into 96 well plates, 24 hours before compound overlay. Compounds were prepared as 10 mM stock solutions in 100% DMSO which were diluted with DMEM (Dulbecco's Modified Eagle's Medium) cell growth Medium (Invitrogen, Burlington, ON, Canada) containing 10% FBS (Fetal Bovine Serum) to concentrations ranging from 50 nM to 250 μM. Aliquots (20 μl) from each concentration were overlaid to 80 μl of the pre-seeded cells in the 96 well plates to make final concentrations of 10 nM to 50 μM. The cells were cultured for 5 days before the Sulforhodamine B assay (SRB) was performed to determine the compound's cell growth inhibition activity.
(§2) Sulforhodamine B (purchased from Sigma, Oakville, ON, Canada) is a water-soluble dye that binds to the basic amino acids of the cellular proteins. Thus, colorimetric measurement of the bound dye provides an estimate of the total protein mass that is related to the cell number. the cells are fixed in situ by gently aspirating off the culture media and adding 50 μl ice cold 10% Tri-chloroacetic Acid (TCA) per well and incubate at 4° C. for 30-60 min, The plates are washed with water five times and allowed to air dry for 5 min. Addition of 50 μl 0.4% (w/v) SRB solution in 1% (v/v) acetic acid to each well and incubatation for 30 min at RT completes the staining reaction. Following staining, plates are washed four times with 1% acetic acid to remove unbound dye and then allowed to air dry for 5 min. The stain is solubilized with 100 μl of 10 mM Tris pH10.5 per well. Absorbance is read at 570 nm.
(§3) The percentage (%) of relative growth inhibition was calculated by comparing to DMSO treated only cells (100%). GI50's were determined for compounds with cytotoxic activity. The GI50 was calculated using GraphPad PRISM software (GraphPad Software, Inc., San Diego, Calif., USA).

Test [2] relates to MDA-MB-468 basal breast cancer cell line. The description is as above. Format: cell-based. As to conditions: Homo sapiens, MDA-MB-468, 120 h; 5 days culture, SRB; read-out: Cell Line GI50 Range, MDA-MB-468. As to the method: as §1, §2, §3
The test system of test [3] is HCC1954 basal breast cancer cell line. Described as above. The format is cell-based. As to conditions: Homo sapiens, HCC1954, 120 h, 5 days culture, read-out: Cell Line GI50 Range, HCC-1954. How it is done:
as §1, §2, §3

Test [4] has as its system A549 lung cancer cells. Described as above. As to conditions: Homo sapiens, A549, 120 h, 5 days culture, read-out: Cell Line GI50 Range, A-549. Format: cell-based. How it is done:
as §1, §2, §3

The test system of test [5] is SW620 colon cancer cells. Described as above. Format: cell-based. As to conditions: Homo sapiens, SW-620, 120 h, 5 days culture, read-out: Cell Line GI50 Range, SW-620. How it is done:
as §1, §2, §3

Test [6] has as its target T1, human PLK4 (Homo sapiens, UniProt O00444).
T1 construct: amino terminal GST fusion of residues 1-391 of human PLK4; made in house; host or cells: E. coli
T1 sequence (O00444 1-391): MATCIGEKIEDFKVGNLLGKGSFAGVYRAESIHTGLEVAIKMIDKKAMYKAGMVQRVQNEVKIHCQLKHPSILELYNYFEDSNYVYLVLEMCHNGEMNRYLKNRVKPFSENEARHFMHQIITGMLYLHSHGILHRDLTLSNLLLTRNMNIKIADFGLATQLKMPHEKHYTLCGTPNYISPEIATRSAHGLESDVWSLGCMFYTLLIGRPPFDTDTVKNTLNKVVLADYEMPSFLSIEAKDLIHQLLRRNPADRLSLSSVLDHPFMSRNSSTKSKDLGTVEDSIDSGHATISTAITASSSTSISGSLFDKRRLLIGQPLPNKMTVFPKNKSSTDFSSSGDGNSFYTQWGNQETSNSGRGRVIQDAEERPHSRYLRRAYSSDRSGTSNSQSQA
Briefly: PLK4 Inhibition Assay (indirect ELISA). The format is biochemical. As to conditions: 15 μM ATP, 4 nM GST-PLK4; read-out: PLK4 IC50 Ranges. In a few lines:
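IC50 values, from 4-point logistic fitting, reflect remaining activity measured by indirect ELISA. Enzyme was GST-PLK4 treated with lambda phosphatase and given a 15-minute pre-incubation with compound before ATP start.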

Test [7] has as its target T2, PLK1 (Homo sapiens, UniProt P53350).
T2 construct: purchased Invitrogen PV3501
Briefly: PLK1 Inhibition Assay (Z-Lyte). The format is biochemical. As to conditions: for inhibition at 10 µM: 10 μM compound, read-out: PLK1 relative inhibition percentage at a dose of 10 μM; for IC50: 25 μM ATP, 8 nM PLK1, read-out: PLK1 IC50 Ranges. As to the method:
PLK1 inhibition was determined using the Z-Lyte assay kit from Invitrogen (cat #PV3802). […] The % inhibition values were determined according to the manufacturer's directions and IC50 values were obtained using a non-linear 4 point logistic curve fit (XLfit4, IDBS)

The target of test [8] is T3, PLK2 (Homo sapiens, UniProt Q9NYY3).
T3 construct: purchased Invitrogen PV4204
Description: PLK2 Inhibition Assay (Z-Lyte). The format is biochemical. As to conditions: for inhibition at 10 µM: 10 μM compound, read-out: PLK2 relative inhibition percentage at a dose of 10 μM. How it is done:
PLK2 inhibition was determined using the Z-Lyte assay kit from Invitrogen (cat #PV3802). The assay was performed using the recommended manufacturer's instructions with 60 μM ATP and 133 nM PLK2 (Invitrogen cat #PV4204). The % inhibition values were determined according to the manufacturer's directions and IC50 values were obtained using a non-linear 4 point logistic curve fit (XLfit4, IDBS)

Test [9] has as its target T4, Aurora A (Homo sapiens, UniProt O14965).
T4 construct: purchased Invitrogen PV3612
T4 sequence (O14965 1-403): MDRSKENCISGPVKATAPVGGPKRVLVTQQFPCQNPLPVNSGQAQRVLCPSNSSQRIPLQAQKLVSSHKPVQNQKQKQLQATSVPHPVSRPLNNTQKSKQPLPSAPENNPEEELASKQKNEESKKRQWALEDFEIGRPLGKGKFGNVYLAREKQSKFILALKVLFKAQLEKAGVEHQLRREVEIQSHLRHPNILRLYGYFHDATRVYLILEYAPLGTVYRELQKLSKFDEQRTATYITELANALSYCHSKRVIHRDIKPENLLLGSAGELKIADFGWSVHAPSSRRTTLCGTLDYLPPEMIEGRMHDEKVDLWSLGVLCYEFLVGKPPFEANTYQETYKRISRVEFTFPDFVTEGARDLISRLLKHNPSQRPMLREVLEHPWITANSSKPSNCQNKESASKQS
Description: Aurora A Inhibition Assay (Z-Lyte). The format is biochemical. As to conditions: for inhibition at 10 µM: 10 μM compound, read-out: Aurora A relative inhibition percentage at a dose of 10 μM. How it is done: Aurora A inhibition was determined using the Z-Lyte assay kit from Invitrogen. The assay was performed using the recommended manufacturer's instructions with 20 μM ATP and 12 nM Aurora A (Invitrogen cat #PV3612). The % inhibition values were determined according to the manufacturer's directions and IC50 values were obtained using a non-linear 4 point logistic curve fit (XLfit4, IDBS)

The target in test [10] is T5, Aurora B (Homo sapiens, UniProt Q96GD4).
T5 construct: purchased Invitrogen PV3970
Description: Aurora B Inhibition Assay (Z-Lyte). The format is biochemical. As to conditions: for IC50: 128 μM ATP, 28 nM Aurora B, read-out: Aurora B IC50 Ranges. How it is done: Aurora B inhibition was determined using the Z-Lyte assay kit from Invitrogen. The assay was performed using the recommended manufacturer's instructions with 128 μM ATP and 28 nM Aurora B (Invitrogen cat #PV3970). The % inhibition values were determined according to the manufacturer's directions and IC50 values were obtained using a non-linear 4 point logistic curve fit (XLfit4, IDBS)

The target of test [11] is T6, PLK3 (Homo sapiens, UniProt Q9H4B4).
T6 construct: purchased Invitrogen PV3812
Description: PLK3 Inhibition Assay (Z-Lyte). As to conditions: 100 μM ATP, 21 nM PLK3. The format is biochemical. As to the method:
PLK3 inhibition was determined using the Z-Lyte assay kit from Invitrogen (cat #PV3802). The assay was performed using the recommended manufacturer's instructions with 100 μM ATP and 21 nM PLK3 (Invitrogen cat #PV3812). The % inhibition values were determined according to the manufacturer's directions and IC50 values were obtained using a non-linear 4 point logistic curve fit (XLfit4, IDBS).

T5 sequence (Q96GD4 whole entry): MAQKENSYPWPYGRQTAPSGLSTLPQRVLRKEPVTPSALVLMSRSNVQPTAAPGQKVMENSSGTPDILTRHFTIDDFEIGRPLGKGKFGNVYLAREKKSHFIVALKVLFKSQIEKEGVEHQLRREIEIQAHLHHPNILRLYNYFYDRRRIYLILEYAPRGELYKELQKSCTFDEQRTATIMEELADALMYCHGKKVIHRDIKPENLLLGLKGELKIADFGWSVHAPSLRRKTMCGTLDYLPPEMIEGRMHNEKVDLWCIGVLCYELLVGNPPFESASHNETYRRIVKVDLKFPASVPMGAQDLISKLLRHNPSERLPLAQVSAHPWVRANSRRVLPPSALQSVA
T3 sequence (Q9NYY3 whole entry): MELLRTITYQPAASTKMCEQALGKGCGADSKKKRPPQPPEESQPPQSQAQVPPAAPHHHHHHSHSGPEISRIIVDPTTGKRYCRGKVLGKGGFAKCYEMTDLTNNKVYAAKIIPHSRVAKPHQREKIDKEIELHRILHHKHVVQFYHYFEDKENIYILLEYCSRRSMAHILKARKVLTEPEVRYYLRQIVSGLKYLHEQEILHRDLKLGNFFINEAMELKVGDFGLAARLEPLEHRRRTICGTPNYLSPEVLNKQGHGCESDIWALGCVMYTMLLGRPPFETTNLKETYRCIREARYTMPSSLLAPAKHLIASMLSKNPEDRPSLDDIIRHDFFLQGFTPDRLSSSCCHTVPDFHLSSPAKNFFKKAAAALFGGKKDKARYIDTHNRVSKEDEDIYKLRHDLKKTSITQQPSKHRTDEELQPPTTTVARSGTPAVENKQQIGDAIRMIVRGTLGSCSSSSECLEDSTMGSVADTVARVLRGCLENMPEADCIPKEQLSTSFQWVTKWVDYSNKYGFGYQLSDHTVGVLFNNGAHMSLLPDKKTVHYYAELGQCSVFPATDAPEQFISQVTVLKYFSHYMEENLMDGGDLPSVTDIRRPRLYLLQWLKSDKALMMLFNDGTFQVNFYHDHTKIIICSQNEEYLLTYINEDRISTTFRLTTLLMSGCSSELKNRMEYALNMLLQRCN
T2 sequence (P53350 whole entry): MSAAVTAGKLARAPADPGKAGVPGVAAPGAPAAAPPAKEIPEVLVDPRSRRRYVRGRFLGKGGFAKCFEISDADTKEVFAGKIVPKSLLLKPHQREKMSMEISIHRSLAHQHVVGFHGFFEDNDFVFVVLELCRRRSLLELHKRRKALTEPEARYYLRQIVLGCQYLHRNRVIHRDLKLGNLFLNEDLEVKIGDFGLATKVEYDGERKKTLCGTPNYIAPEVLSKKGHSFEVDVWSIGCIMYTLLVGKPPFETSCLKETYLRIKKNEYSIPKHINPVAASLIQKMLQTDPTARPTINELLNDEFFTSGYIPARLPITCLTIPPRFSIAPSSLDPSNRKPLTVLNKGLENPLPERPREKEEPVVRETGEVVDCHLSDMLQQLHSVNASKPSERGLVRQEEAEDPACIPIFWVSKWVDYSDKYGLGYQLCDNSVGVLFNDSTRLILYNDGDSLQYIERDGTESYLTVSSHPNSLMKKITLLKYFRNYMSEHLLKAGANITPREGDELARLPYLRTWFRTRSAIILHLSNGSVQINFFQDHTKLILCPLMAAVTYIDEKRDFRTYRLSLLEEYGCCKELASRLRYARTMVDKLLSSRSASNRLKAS
T6 sequence (Q9H4B4 whole entry): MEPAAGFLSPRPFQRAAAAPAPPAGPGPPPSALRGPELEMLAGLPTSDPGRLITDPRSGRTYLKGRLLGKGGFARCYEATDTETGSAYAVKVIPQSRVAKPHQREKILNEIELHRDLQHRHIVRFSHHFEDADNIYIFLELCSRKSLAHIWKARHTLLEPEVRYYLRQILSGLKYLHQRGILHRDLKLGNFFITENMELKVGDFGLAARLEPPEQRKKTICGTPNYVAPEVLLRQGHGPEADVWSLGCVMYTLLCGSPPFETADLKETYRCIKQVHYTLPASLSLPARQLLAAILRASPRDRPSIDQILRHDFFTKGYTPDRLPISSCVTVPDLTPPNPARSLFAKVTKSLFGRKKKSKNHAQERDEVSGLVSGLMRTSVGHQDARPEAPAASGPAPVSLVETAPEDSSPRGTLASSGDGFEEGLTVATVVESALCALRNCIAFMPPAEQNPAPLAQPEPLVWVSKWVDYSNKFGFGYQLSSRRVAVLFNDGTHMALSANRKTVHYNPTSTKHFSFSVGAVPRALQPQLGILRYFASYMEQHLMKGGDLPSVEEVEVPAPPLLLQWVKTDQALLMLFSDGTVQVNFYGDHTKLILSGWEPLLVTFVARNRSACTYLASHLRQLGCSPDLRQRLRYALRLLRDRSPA

For `CN1CCN(c2ccc(-c3n[nH]c4cc(C=C5C(=O)Nc6ccc(Br)cc65)ccc34)cn2)CC1` (mixture of isomers) [Example A150, (E and Z)-5-bromo-3-((3-(6-(4-methylpiperazin-1-yl)pyridin-3-yl)-1H-indazol-6-yl)methylene)indolin-2-one], the GI50 in test [1], in test [2], in test [3], in test [4] and in [5] was less than 5 µM each time. Moreover, the IC50 in test [6] was less than 5 µM.

`COc1ccccc1/C=C/c1n[nH]c2cc(C=C3C(=O)Nc4ccccc43)ccc12` (mixture of isomers) [Example A59, (E and Z)-3-((3-((E)-2-methoxystyryl)-1H-indazol-6-yl)methylene)-indolin-2-one]: the GI50 in test [1] was less than 5 µM; in [2], less than 5 µM; in test [3], 5 to 20 µM; in [4], 5 to 20 µM; in [5] it was less than 5 µM. The inhibition at 10 µM in [7] and in [8] was less than 50% in each case. The IC50 was less than 5 µM in test [6]; less than 5 µM in [9] (20 μM ATP, 12 nM Aurora A, read-out: Aurora A IC50 Ranges); less than 5 µM in test [10].

In the case of `CN1CCN(c2ccc(-c3n[nH]c4cc(C=C5C(=O)Nc6ccccc65)ccc34)cn2)CC1` (mixture of isomers) [Example A96, (E and Z)-3-((3-(6-(4-methylpiperazin-1-yl)pyridin-3-yl)-1H-indazol-6-yl)methylene)indolin-2-one], the GI50 in test [1], in test [2], in test [3], in test [4] and in test [5] was less than 5 µM throughout. The inhibition at 10 µM in test [7] is less than 50%; in test [9] it was greater than 50%. Besides, the half-maximal inhibitory concentration (IC50) in test [6] and in [10] was less than 5 µM throughout.

For `O=C1Nc2ccccc2/C1=C\c1ccc2[nH]cnc2c1` [Example A19, (E)-3-((1H-benzo[d]imidazol-5-yl)methylene)indolin-2-one], the GI50 is 5 to 20 µM in [1] and less than 5 µM in [2]. For the same molecule, the IC50 in test [7] and in test [6] was 5 to 50 µM throughout.

Take `O=C1Nc2ccc(Br)cc2/C1=C\c1ccc2[nH]ncc2c1` [Example A31, (E)-3-((1H-indazol-5-yl)methylene)-5-bromoindolin-2-one]: the 50% growth inhibitory concentration (GI50) in [1] and in [2] was less than 5 µM throughout. The IC50 in test [7] is greater than 50 µM; in test [6], less than 5 µM; in test [8] (60 μM ATP, 133 nM PLK2, read-out: PLK2 IC50 Ranges), 5 to 50 µM. Besides, the inhibition at 10 µM in test [9] was less than 50%; in [10] (10 μM compound, read-out: Aurora B relative inhibition percentage at a dose of 10 μM) it was greater than 50%.

In the case of `O=C1Nc2ccccc2/C1=C\c1ccc2c(C#Cc3cccnc3)n[nH]c2c1` [Example A147, (E)-3-((3-(pyridin-3-ylethynyl)-1H-indazol-6-yl)methylene)indolin-2-one], the GI50 in test [1] was 20 to 50 µM; in test [2], 5 to 20 µM; in test [3] it was greater than 50 µM; in test [4], greater than 50 µM; in test [5], 20 to 50 µM. Further, the IC50 in test [6] is less than 5 µM.

As to `O=C1Nc2ccc(F)cc2/C1=C/c1ccc2cn[nH]c2c1` [Example A32, (Z)-3-((1H-indazol-6-yl)methylene)-5-fluoroindolin-2-one], the 50% growth inhibitory concentration (GI50) in test [1] and in [2] was 5 to 20 µM throughout. The IC50 in test [7] is 5 to 50 µM; in test [6] it was less than 5 µM; in test [10], less than 5 µM. Further, the inhibition at 10 µM is less than 50% in test [8] and greater than 50% in test [9].

In the case of `O=C1Nc2cc(Cl)ccc2/C1=C\c1ccc2[nH]nnc2c1` [Example A4, (E)-3-((1H-benzo[d][1,2,3]triazol-5-yl)methylene)-6-chloroindolin-2-one], the GI50 in test [1] and in [2] was 5 to 20 µM in each case. Further, the IC50 in test [7] and in [6] was 5 to 50 µM each time.

`N#Cc1cccc2c1NC(=O)C2=Cc1ccc2cn[nH]c2c1` (mixture of isomers) [Example A45, (E and Z)-3-((1H-indazol-6-yl)methylene)-2-oxoindoline-7-carbonitrile]: the IC50 was greater than 500 nM in [11] and 5 to 50 µM in test [6].

For `CNC(=O)c1ccc2c(c1)NC(=O)C2=Cc1ccc2cn[nH]c2c1` (mixture of isomers) [Example A10, (E and Z)-(3-((1H-indazol-6-yl)methylene)-N-methyl-2-oxoindoline-6-carboxamide], the GI50 in test [1] and in test [2] was 20 to 50 µM in each case. In addition, the IC50 in test [7] and in test [6] was less than 5 µM in each case.
